Source: patent US20240174723A1, “STAPLED ANTIMICROBIAL PEPTIDES (STAMPS) AND USES THEREOF” (Lytica Therapeutics, Inc., priority 2021, published 2024)
In brackets after ≈: the same amount, converted by molar mass. Positions of bridges follow the written chain, without caps; N, C: chain ends. Non-standard residues stand in square brackets, D forms with d. Residues, ends and D or L forms follow the SMILES beside them. S5 = C=CCCC[C@](C)(N)C(=O)O; Dab = NCC[C@H](N)C(=O)O

Legend:
E. coli = assay type: cell-based, Escherichia coli
Method in brief: (§1)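 Read-out is visible growth: the MIC is the minimum peptide concentration showing none after 20-24 h at 37 °C. Peptides were serially diluted from water stocks and mixed with log-phase bacteria (final 5×10^5 CFU/ml) in Mueller-Hinton or cation-adjusted Mueller-Hinton broth.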

A. baumannii = assay type: cell-based, Acinetobacter baumannii
Method in brief: as §1

P. aeruginosa = assay type: cell-based, Pseudomonas aeruginosa
Method in brief: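 Broth microdilution adapted from CLSI in MHB or cation-adjusted MHB; log-phase P. aeruginosa at 5×10^5 CFU/ml final with serially diluted stapled peptides. Incubated 20-24 h at 37 °C; MIC is the lowest concentration without visible growth.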

K. pneumoniae = assay type: cell-based, Klebsiella pneumoniae
Method in brief: as §1

S. aureus = assay type: cell-based, Staphylococcus aureus
Method in brief: as §1

in vitro [1] = assay type: cell-based; details: human
Method: Cell culture: RPTEC were maintained in MEM media supplemented with growth factors. HEPG2 cell line was maintained in Eagle's Minimum Essential Medium (EMEM) supplemented with fetal bovine serum to a final concentration of 10%.
90 minute cytotoxicity assay: Cells were plated in a 96-well format, and after overnight incubation, media was replaced with fresh media. Serial dilutions of StAMPs from a 5 mg/mL water stock, or vehicle, were added to the cells in a final volume of 100 μl. After incubating at 37° C. for 90 min, 50 μl of cell culture media was transferred to a clear 96-well plate, incubated with 50 μl of lactate dehydrogenase (LDH) assay reagent for 10 min, and absorbance measured at 490 nm on a microplate reader.
Renal toxicity was measured after 90 minutes of incubation, while liver toxicity was measured after 48 hours of incubation with StAMPs. N/A=not tested. The following apply to all peptides (i.e., StAMPs) listed in Tables A-C: Crosslinks (X^1—X^2 and X^3—X^4): (alk); N-terminus: —NH2; C-terminus: amidated with —NH2; counterion: Cl^−. The following apply to all peptides (i.e., StAMPs) listed in Table D: Crosslinks (X^1—X^2 and X^3—X^4): (alk); N-terminus: —NH2; C-terminus: as shown in table; counterion: Cl^−.
StAMP Micelle Formulation: DSPE-MPEG(2000) was suspended in buffered saline at 50-100 mg/mL overnight. StAMP stock solutions at 5-20 mg/mL in buffered saline were prepared and equal volumes of micelle and StAMP stock solution were mixed at the desired StAMP:Lipid ratio. Suspensions were allowed to sit for 5-10 minutes at room temperature before being used in in vitro and in vivo assays.
In Table E, the StAMP is StAMP 4 (Table A) and “Lipid”=DSPE-MPEG(2000).

in vitro [2] = assay type: cell-based; details: human, Inhibitory Concentration at 50% Cytotoxicity (IC50) Human Liver Cells (HepG2)
Method in brief: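 HepG2 cells in EMEM with 10% FBS, allowed 4 h to attach, then exposed to serial dilutions of StAMPs (from a 5 mg/mL water stock) or vehicle. After 48 h at 37 °C, viability read by CellTiter-Glo luminescence.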

Row | SMILES | Minimum Inhibitory Concentration (MIC) E. coli (E. coli) [µg/mL] | Minimum Inhibitory Concentration (MIC) A. baumannii (A. baumannii) [µg/mL] | Minimum Inhibitory Concentration (MIC) P. aeruginosa (P. aeruginosa) [µg/mL] | Minimum Inhibitory Concentration (MIC) K. pneumoniae (K. pneumoniae) [µg/mL] | Minimum Inhibitory Concentration (MIC) S. aureus (S. aureus) [µg/mL] | IC50 at 90 min (in vitro [1]) [µg/mL] | IC50 at 48 hours (in vitro [2]) [µg/mL]
1 | CC(C)[C@@H]1NC(=O)[C@@](C)(NC(=O)[C@H](C)NC(=O)[C@H](CCCCN)NC(=O)CNC(=O)[C@H](Cc2ccccc2)NC(=O)[C@H](CCCCN)NC(=O)[C@H](CCCCN)NC(=O)[C@H](CCCCN)NC(=O)[C@H](CO)NC(=O)[C@H](Cc2c[nH]cn2)NC(=O)[C@]2(C)CCCC=CCCC[C@](C)(NC(=O)CN)C(=O)NCC(=O)N[C@@H](CCCCN)C(=O)N[C@@H](Cc3ccccc3)C(=O)N2)CCCC=CCCC[C@@](C)(C(=O)N[C@@H](C)C(=O)N[C@@H](CCCCN)C(=O)N[C@@H](CCCCN)C(N)=O)NC(=O)[C@H](CCC(=O)O)NC(=O)[C@H](Cc2c[nH]c3ccccc23)NC1=O (single isomer, unassigned) [compound 10] | 4 | 2 | 4 | 4 | 32 | 110 (≈ 41.3 µM) | 150 (≈ 56.4 µM)
2 | CC(C)[C@@H]1NC(=O)[C@@](C)(NC(=O)[C@H](C)NC(=O)[C@H](CCCCN)NC(=O)CNC(=O)[C@H](Cc2ccccc2)NC(=O)[C@H](CCCCN)NC(=O)[C@H](CCCCN)NC(=O)[C@H](CCCCN)NC(=O)[C@H](CO)NC(=O)[C@H](Cc2c[nH]cn2)NC(=O)[C@]2(C)CCCC=CCCC[C@](C)(NC(=O)CN)C(=O)NCC(=O)N[C@@H](CCCCN)C(=O)N[C@@H](Cc3ccccc3)C(=O)N2)CCCC=CCCC[C@@](C)(C(=O)N[C@@H](C)C(=O)N[C@@H](CCCCN)C(=O)N[C@@H](CCCCN)C(N)=O)NC(=O)[C@H](CCC(=O)O)NC(=O)CNC1=O [compound 1] (H-G[S5]GKF[S5]HSKKKFGKA[S5]VGE[S5]AKK-NH2; staple 2-6, 16-20) | 2 | 2 | 8 | 32 | >64 | 294 (≈ 116 µM) | 391 (≈ 154 µM)
3 | CC(C)[C@@H]1NC(=O)[C@@](C)(NC(=O)[C@H](C)NC(=O)[C@H](CCCCN)NC(=O)CNC(=O)[C@H](Cc2ccccc2)NC(=O)[C@H](CCCCN)NC(=O)[C@H](CCCCN)NC(=O)[C@H](CCCCN)NC(=O)[C@H](CO)NC(=O)[C@H](CCCCN)NC(=O)[C@]2(C)CCCC=CCCC[C@](C)(NC(=O)CN)C(=O)NCC(=O)N[C@@H](CCCCN)C(=O)N[C@@H](Cc3ccccc3)C(=O)N2)CCCC=CCCC[C@@](C)(C(=O)N[C@@H](C)C(=O)N[C@@H](CCCCN)C(=O)N[C@@H](CCCCN)C(N)=O)NC(=O)[C@H](CCC(=O)O)NC(=O)CNC1=O [compound 2] (H-G[S5]GKF[S5]KSKKKFGKA[S5]VGE[S5]AKK-NH2; staple 2-6, 16-20) | 2 | 2 | 4 | 4 | 64 | 116 (≈ 46 µM) | 143 (≈ 56.7 µM)
4 | CC(C)[C@@H]1NC(=O)[C@@](C)(NC(=O)[C@H](C)NC(=O)[C@H](CCCCN)NC(=O)CNC(=O)[C@H](Cc2ccccc2)NC(=O)[C@H](CCCCN)NC(=O)[C@H](CCCCN)NC(=O)[C@H](CCCCN)NC(=O)[C@H](CCCCN)NC(=O)[C@H](Cc2c[nH]cn2)NC(=O)[C@]2(C)CCCC=CCCC[C@](C)(NC(=O)CN)C(=O)NCC(=O)N[C@@H](CCCCN)C(=O)N[C@@H](Cc3ccccc3)C(=O)N2)CCCC=CCCC[C@@](C)(C(=O)N[C@@H](C)C(=O)N[C@@H](CCCCN)C(=O)N[C@@H](CCCCN)C(N)=O)NC(=O)[C@H](CCC(=O)O)NC(=O)CNC1=O [compound 3] (H-G[S5]GKF[S5]HKKKKFGKA[S5]VGE[S5]AKK-NH2; staple 2-6, 16-20) | 4 | 4 | 4 | 16 | >64 | > 200 | > 200
5 | CC(C)[C@@H]1NC(=O)[C@@](C)(NC(=O)[C@H](C)NC(=O)[C@H](CCCCN)NC(=O)CNC(=O)[C@H](Cc2ccccc2)NC(=O)[C@H](CCCCN)NC(=O)[C@H](CCCCN)NC(=O)[C@H](CCCCN)NC(=O)[C@H](CCCCN)NC(=O)[C@H](CCCCN)NC(=O)[C@]2(C)CCCC=CCCC[C@](C)(NC(=O)CN)C(=O)NCC(=O)N[C@@H](CCN)C(=O)N[C@@H](Cc3ccccc3)C(=O)N2)CCCC=CCCC[C@@](C)(C(=O)N[C@@H](C)C(=O)N[C@@H](CCCCN)C(=O)N[C@@H](CCCCN)C(N)=O)NC(=O)[C@H](CCC(=O)O)NC(=O)CNC1=O [compound 37] (H-G[S5]G[Dab]F[S5]KKKKKFGKA[S5]VGE[S5]AKK-NH2; staple 2-6, 16-20) | 2 | 2 | 2 | 4 | >64 | 113 (≈ 44.6 µM) | 
6 | CC(C)[C@@H]1NC(=O)[C@@](C)(NC(=O)[C@H](C)NC(=O)[C@H](CCCCN)NC(=O)CNC(=O)[C@H](Cc2ccccc2)NC(=O)[C@H](CCCCN)NC(=O)[C@H](CCCCN)NC(=O)[C@H](CCCCN)NC(=O)[C@H](CCN)NC(=O)[C@H](CCCCN)NC(=O)[C@]2(C)CCCC=CCCC[C@](C)(NC(=O)CN)C(=O)NCC(=O)N[C@@H](CCCCN)C(=O)N[C@@H](Cc3ccccc3)C(=O)N2)CCCC=CCCC[C@@](C)(C(=O)N[C@@H](C)C(=O)N[C@@H](CCCCN)C(=O)N[C@@H](CCCCN)C(N)=O)NC(=O)[C@H](CCC(=O)O)NC(=O)CNC1=O [compound 38] (H-G[S5]GKF[S5]K[Dab]KKKFGKA[S5]VGE[S5]AKK-NH2; staple 2-6, 16-20) | 2 | 2 | 2 | 4 | >64 | 117 (≈ 46.1 µM) | 
